Patent US5478946A, “Guanidino compounds as regulators of nitric oxide synthase” (Abbott Laboratories, priority 1993, dated 1995)

Test system: RFL-6 rat fetal lung fibroblast cells
Experiment: cGMP assay, RFL-6 cells as detectors of EDRF/NO
Type: cell-based
Settings: presence of superoxide dismutase; 6-well plates
Source text: In those instances where it is suspected that the test substance is acting as a substrate rather than an inhibitor, the EDRF/NO may be estimated. For this confirmation bioassay, a method for quantification of endothelium-derived relaxing factor (EDRF) is utilized and is described in detail below. This technique, measuring cyclic GMP responses of RFL-6 rat fetal lung fibroblast cells to estimate NO or EDRF is sensitive, simple and quite useful for the evaluation of compounds that regulate EDRF/NO release from various endothelial cells, or other cells or tissues (such as for example RAW cells (induced with LPS) and N1E-115 cells). (cf. Ishii, K., et al., American Journal of Physiology, 1991,261:(2 pt 2) H598-603). The cyclic GMP measured is an indirect measure of the amount of EDRF/NO produced by NO synthase, so compounds that reduce the amount of cyclic GMP produced are termed inhibitors of NO synthase, and those that increase cyclic GMP in the absence of exogenous L-arginine are termed substrates or stimulators of NO synthase.
This is a new bioassay method for detection and quantification of endothelium-derived relaxing factor (EDRF) wherein cyclic GMP responses of RFL-6 rat fetal lung fibroblast cells are utilized to estimate the activity of nitric oxide (NO) and EDRF. […]

nitric oxide [NO]
lowest concentration of NO to which RFL-6 cells responded: 2 nM
